# Laboratory results taken from PubChem BioAssay AID248 (DTP/NCI, 2004).
# Values joined by “and” are separate entries in the source; they are usually repeats but may differ in a detail not shown here. Identical values can stand only once. Inconclusive results and toxic doses are left out.
# Test system: L1210 leukemia ip in BDF1 mice, survival T/C
# Assay: NCI In Vivo Anticancer Drug Screen. Data for tumor model L1210 Leukemia (intraperitoneal) in B6D2F1 (BDF1) mice
# Conditions: endpoint: mean survival time, higher = longer survival
# In short: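 Transplantable tumor model; survival measured in treated vs vehicle control mice. Value = treated/control.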
# [1] = dose: 25.0 mg/kg/injection, schedule: Q01DX009 (ip), vehicle: saline with Tween-80
# [2] = dose: 50.0 mg/kg/injection, schedule: Q01DX009 (ip), vehicle: saline with Tween-80
# [3] = dose: 100.0 mg/kg/injection, schedule: Q01DX009 (ip), vehicle: saline with Tween-80
# [4] = dose: 100.0 mg/kg/injection, schedule: Q01DX001 (ip), vehicle: saline
# [5] = dose: 200.0 mg/kg/injection, schedule: Q01DX001 (ip), vehicle: saline
# [6] = dose: 400.0 mg/kg/injection, schedule: Q01DX001 (ip), vehicle: saline
# [7] = dose: 100.0 mg/kg/injection, schedule: Q04DX003 (ip), vehicle: saline with Tween-80
# [8] = dose: 200.0 mg/kg/injection, schedule: Q01DX009 (ip), vehicle: saline with Tween-80
# [9] = dose: 100.0 mg/kg/injection, schedule: Q04DX002 (ip), vehicle: saline with Tween-80
# [10] = dose: 200.0 mg/kg/injection, schedule: Q04DX002 (ip), vehicle: saline with Tween-80
# [11] = dose: 400.0 mg/kg/injection, schedule: Q04DX002 (ip), vehicle: saline with Tween-80
# [12] = dose: 50.0 mg/kg/injection, schedule: Q04DX002 (ip), vehicle: saline with Tween-80
# [13] = dose: 100.0 mg/kg/injection, schedule: Q01DX009 (ip), vehicle: saline
# [14] = dose: 100.0 mg/kg/injection, schedule: Q04DX003 (ip), vehicle: Klucel (hydroxypropylcellulose) (HPC)
# [15] = dose: 400.0 mg/kg/injection, schedule: Q04DX003 (ip), vehicle: Klucel (hydroxypropylcellulose) (HPC)
compound,measurement,setting,value
COc1ccc2[nH]c(-c3ccccc3)cc2c1,T/C,[1],100 % of control
same,T/C,[2],108 % of control
same,T/C,[3],101 % of control
Cc1cc(N=C2C=C(Br)C(=O)C(Br)=C2)cc(CN(CC(=O)O)CC(=O)O)c1O,T/C,[4],105 % of control
same,T/C,[5],111 % of control
same,T/C,[6],100 % of control
CC1=NN(c2ccccc2)C(=O)C1(Br)Br,T/C,[7],96 % of control
O=C(CNC(=O)c1ccccc1)N/N=C/c1ccc(Cl)cc1Cl,T/C,[3],94 % of control
same,T/C,[8],89 % of control
same,T/C,"dose: 400.0 mg/kg/injection, schedule: Q01DX009 (ip), vehicle: saline with Tween-80",98 % of control
CCOc1ccn(C)c(=O)n1,T/C,"dose: 50.0 mg/kg/injection, schedule: Q01DX001 (ip), vehicle: saline",90 % of control
same,T/C,[4],95 % of control
CC1(C)C2CC=C(CCO)C1C2 (configuration not stated),T/C,[4],98 % of control
same,T/C,[9],98 % of control
same,T/C,[5],93 % of control
same,T/C,[10],110 % of control
same,T/C,[11],93 % of control
Cc1cc2ccccc2[n+](C)c1-c1ccccc1Br,T/C,"dose: 5.0 mg/kg/injection, schedule: Q01DX001 (ip), vehicle: saline",108 % of control
same,T/C,"dose: 10.0 mg/kg/injection, schedule: Q01DX001 (ip), vehicle: saline",95 % of control
O=[N+]([O-])c1cc([N+](=O)[O-])c2sc3ccccc3c2c1,T/C,[12],97 % of control
same,T/C,[9],104 % of control and 90 % of control
same,T/C,[10],87 % of control
same,T/C,[11],108 % of control
CC(C)(C(=O)Oc1ccccc1)C(=O)Oc1ccccc1,T/C,[2],95 % of control
same,T/C,[3],100 % of control
same,T/C,[8],88 % of control
C=CCN(C=O)CC=C,T/C,[13],101 % of control
CC1(C)OCC(C(O)C(O)C2COC(C)(C)O2)O1 (configuration not stated),T/C,"dose: 100.0 mg/kg/injection, schedule: Q04DX002 (ip), vehicle: saline",96 % of control
same,T/C,"dose: 200.0 mg/kg/injection, schedule: Q04DX002 (ip), vehicle: saline",104 % of control
same,T/C,"dose: 400.0 mg/kg/injection, schedule: Q04DX002 (ip), vehicle: saline",101 % of control
COc1cc2ccc(C(C)NCC(=O)O)cc2cc1OC (configuration not stated),T/C,"dose: 100.0 mg/kg/injection, schedule: Q01DX009 (ip), vehicle: Klucel (hydroxypropylcellulose) (HPC)",100 % of control
same,T/C,[14],93 % of control
same,T/C,"dose: 200.0 mg/kg/injection, schedule: Q01DX009 (ip), vehicle: Klucel (hydroxypropylcellulose) (HPC)",100 % of control
same,T/C,"dose: 200.0 mg/kg/injection, schedule: Q04DX003 (ip), vehicle: Klucel (hydroxypropylcellulose) (HPC)",90 % of control
same,T/C,"dose: 400.0 mg/kg/injection, schedule: Q01DX009 (ip), vehicle: Klucel (hydroxypropylcellulose) (HPC)",94 % of control
same,T/C,[15],90 % of control
CN(/N=C/c1ccccc1)C(=S)Nc1ccccc1,T/C,"dose: 62.5 mg/kg/injection, schedule: Q04DX003 (ip), vehicle: Klucel (hydroxypropylcellulose) (HPC)",100 % of control
same,T/C,"dose: 250.0 mg/kg/injection, schedule: Q04DX003 (ip), vehicle: Klucel (hydroxypropylcellulose) (HPC)",103 % of control
CC12CCC3C(CC(=O)C45OC4C(O)CCC35C)C1CCC2=O (configuration not stated),T/C,"dose: 100.0 mg/kg/injection, schedule: Q01DX001 (sc), vehicle: steriod suspending solution",114 % of control
same,T/C,"dose: 200.0 mg/kg/injection, schedule: Q01DX001 (sc), vehicle: steriod suspending solution",114 % of control
same,T/C,"dose: 400.0 mg/kg/injection, schedule: Q01DX001 (sc), vehicle: steriod suspending solution",121 % of control
O=C(COc1cccc(Cl)c1)Nc1cccc(S(=O)(=O)O)c1 (tested in a mixture with another compound),T/C,"dose: 100.0 mg/kg/injection, schedule: Q01DX001 (ip), vehicle: Klucel (hydroxypropylcellulose) (HPC)",100 % of control
same,T/C,"dose: 200.0 mg/kg/injection, schedule: Q01DX001 (ip), vehicle: Klucel (hydroxypropylcellulose) (HPC)",99 % of control
same,T/C,"dose: 400.0 mg/kg/injection, schedule: Q01DX001 (ip), vehicle: Klucel (hydroxypropylcellulose) (HPC)",87 % of control
CCOC(=O)C(C#N)(C1C=CCC1)C1C=CCC1 (configuration not stated),T/C,[7],100 % of control
same,T/C,"dose: 200.0 mg/kg/injection, schedule: Q04DX003 (ip), vehicle: saline with Tween-80",100 % of control
same,T/C,"dose: 400.0 mg/kg/injection, schedule: Q04DX003 (ip), vehicle: saline with Tween-80",100 % of control
O=C(Oc1ccccc1I)c1cc(I)c(I)c(I)c1,T/C,[14],92 % of control
same,T/C,[15],94 % of control
CCC#CC#CCC,T/C,[4],97 % of control
same,T/C,[13],96 % of control
same,T/C,[5],108 % of control
same,T/C,[6],112 % of control
CCCCCc1cnc(NCCCC(N)C(=O)O)nc1 (configuration not stated),T/C,"dose: 25.0 mg/kg/injection, schedule: Q04DX002 (ip), vehicle: saline with Tween-80",95 % of control
same,T/C,[12],95 % of control
same,T/C,[9],95 % of control
O=NN(CCCl)C(=O)NC1CCS(=O)(=O)CC1,T/C,"dose: 6.0 mg/kg/injection, schedule: Q01DX001 (ip), vehicle: carboxymethylcellulose (CMC)",228 % of control
same,T/C,"dose: 7.5 mg/kg/injection, schedule: Q01DX001 (ip), vehicle: carboxymethylcellulose (CMC)",313 % of control
same,T/C,"dose: 8.0 mg/kg/injection, schedule: Q01DX001 (ip), vehicle: carboxymethylcellulose (CMC)",235 % of control
same,T/C,"dose: 11.4 mg/kg/injection, schedule: Q01DX001 (ip), vehicle: carboxymethylcellulose (CMC)",337 % of control
same,T/C,"dose: 12.0 mg/kg/injection, schedule: Q01DX001 (ip), vehicle: carboxymethylcellulose (CMC)",211 % of control and 319 % of control
same,T/C,"dose: 17.0 mg/kg/injection, schedule: Q01DX001 (ip), vehicle: carboxymethylcellulose (CMC)",337 % of control
same,T/C,"dose: 18.0 mg/kg/injection, schedule: Q01DX001 (ip), vehicle: carboxymethylcellulose (CMC)",319 % of control
same,T/C,"dose: 37.0 mg/kg/injection, schedule: Q01DX001 (ip), vehicle: carboxymethylcellulose (CMC)",93 % of control and 105 % of control
N=C(N)Cc1ccc(NC(=O)c2ccc(C(=O)Nc3ccc(CC(=N)N)cc3)cc2)cc1,T/C,"dose: 3.75 mg/kg/injection, schedule: Q01DX Z (ip), vehicle: methylcellulose (MC)",108 % of control
same,T/C,"dose: 3.75 mg/kg/injection, schedule: Q01DX Z (ip), vehicle: saline",89 % of control
same,T/C,"dose: 7.5 mg/kg/injection, schedule: Q01DX Z (ip), vehicle: methylcellulose (MC)",108 % of control
same,T/C,"dose: 15.0 mg/kg/injection, schedule: Q01DX Z (ip), vehicle: saline",155 % of control
same,T/C,"dose: 15.0 mg/kg/injection, schedule: Q01DX Z (oral), vehicle: saline",105 % of control
same,T/C,"dose: 16.5 mg/kg/injection, schedule: Q01DX009 (ip), vehicle: saline with Tween-80",171 % of control
same,T/C,"dose: 22.0 mg/kg/injection, schedule: Q01DX001 (ip), vehicle: carboxymethylcellulose (CMC)",107 % of control and 109 % of control
same,T/C,[1],219 % of control
same,T/C,"dose: 25.0 mg/kg/injection, schedule: Q01DX009 (ip), vehicle: saline",174 % of control
same,T/C,"dose: 25.0 mg/kg/injection, schedule: Q04DX003 (ip), vehicle: saline",107 % of control
same,T/C,"dose: 30.0 mg/kg/injection, schedule: Q01DX Z (ip), vehicle: methylcellulose (MC)",116 % of control
same,T/C,"dose: 30.0 mg/kg/injection, schedule: Q01DX Z (ip), vehicle: saline",103 % of control and 113 % of control
same,T/C,"dose: 30.0 mg/kg/injection, schedule: Q01DX Z (oral), vehicle: saline",102 % of control
same,T/C,"dose: 33.0 mg/kg/injection, schedule: Q01DX001 (ip), vehicle: carboxymethylcellulose (CMC)",112 % of control
same,T/C,"dose: 33.0 mg/kg/injection, schedule: Q04DX003 (ip), vehicle: saline",107 % of control
same,T/C,"dose: 37.5 mg/kg/injection, schedule: Q01DX009 (ip), vehicle: saline with Tween-80",120 % of control
same,T/C,"dose: 50.0 mg/kg/injection, schedule: Q01DX001 (ip), vehicle: carboxymethylcellulose (CMC)",117 % of control
same,T/C,"dose: 60.0 mg/kg/injection, schedule: Q01DX Z (oral), vehicle: saline",108 % of control and 109 % of control
same,T/C,"dose: 75.0 mg/kg/injection, schedule: Q04DX003 (ip), vehicle: saline",183 % of control
same,T/C,"dose: 100.0 mg/kg/injection, schedule: Q04DX003 (ip), vehicle: saline",120 % of control
same,T/C,"dose: 120.0 mg/kg/injection, schedule: Q01DX Z (oral), vehicle: saline",103 % of control and 108 % of control
same,T/C,"dose: 240.0 mg/kg/injection, schedule: Q01DX Z (oral), vehicle: saline",112 % of control
same,T/C,"dose: 480.0 mg/kg/injection, schedule: Q01DX Z (oral), vehicle: saline",106 % of control
